Measurements as given in patent US4820695A, “C-20-dihydro-deoxy-(cyclic amino)-derivatives of macrolide antibiotics” (priority 1987, dated 1989).
In brackets after ≈: the same amount, converted by molar mass. Several values for one entry are separate records, joined by “and”; a condition that tells them apart may be missing. Identical values can stand only once. Like-named read-outs stand apart in the source and are kept apart here.

Experiments:
[1] = tested on: Staphylococcus epidermidis EPI1; test: MIC, standard agar-dilution assay (Table IX); type: cell-based; conditions: Staphylococcus epidermidis EPI1; agar-dilution; read-out: MIC
[2] = tested on: Haemophilus influenzae C.L.; test: MIC, standard agar-dilution assay (Table IX); type: cell-based; conditions: Ampicillin-sensitive strain, read-out: MIC
Escherichia coli N10 = test: MIC, standard agar-dilution assay (Table IX); type: cell-based; conditions: read-out: MIC
Group D strain 9960 = test: MIC, standard agar-dilution assay (Table IX); type: cell-based, Streptococcus Group D; conditions: tested using predecessor Group D strain 9960
[3] = tested on: Streptococcus pyogenes C203; test: ED50 in mice experimentally infected with S. pyogenes C203 (Table XI); type: in vivo; conditions: Streptococcus pyogenes, doses given 1 and 4 hours postinfection, read-out: ED50
Procedure, shortened: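 Protective ED50 (mg/kg × 2) was determined as the dose sparing half the animals. Test compound was given twice, at 1 and 4 hours after experimental S. pyogenes C203 infection of mice.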

Escherichia coli EC14 = test: MIC, standard agar-dilution assay (Table IX); type: cell-based; conditions: read-out: MIC
[4] = tested on: Staphylococcus aureus S13E; test: MIC, standard agar-dilution assay (Table IX); type: cell-based; conditions: Staphylococcus aureus, S13E
Klebsiella X26 = test: MIC, standard agar-dilution assay (Table IX); type: cell-based; conditions: read-out: MIC
[5] = Titratable groups in 66% aqueous DMF (Tables XIV-XVI); type: physicochemical
Source text: ^c Run in 66% aqueous DMF
^d Run in 66% aqueous DMF

[6] = tested on: Staphylococcus aureus X400; test: MIC, standard agar-dilution assay (Table IX); type: cell-based; conditions: Staphylococcus aureus X400, Methicillin-resistant strain, read-out: MIC
[7] = tested on: Haemophilus influenzae 76; test: MIC, standard agar-dilution assay (Table IX); type: cell-based; conditions: Haemophilus influenzae 76, Ampicillin-resistant strain, read-out: MIC
Escherichia coli TEM = test: MIC, standard agar-dilution assay (Table IX); type: cell-based; conditions: read-out: MIC
[8] = tested on: Staphylococcus epidermidis 222; test: MIC, standard agar-dilution assay (Table IX); type: cell-based; conditions: read-out: MIC
[9] = tested on: Staphylococcus aureus V41; test: MIC, standard agar-dilution assay (Table IX); type: cell-based; conditions: Staphylococcus aureus V41, Penicillin-resistant strain, read-out: MIC
Staphyloccus aureus X1.1 = test: MIC, standard agar-dilution assay (Table IX); type: cell-based, Staphylococcus aureus; conditions: Staphylococcus aureus, read-out: MIC
Staphylococcus aureus = test: MIC, broth-dilution microtiter test (Table X); type: cell-based; conditions: read-out: MIC
Source text: (§1) The MIC's in Table X were obtained using conventional broth-dilution microtiter tests.

[10] = tested on: Pasteurella multocida 17E; test: MIC, broth-dilution microtiter test (Table X); type: cell-based; conditions: Bovine isolate, read-out: MIC
Source text: as §1

[11] = tested on: Pasteurella hemolytica 22C; test: MIC, broth-dilution microtiter test (Table X); type: cell-based; conditions: read-out: MIC
Source text: as §1

[12] = tested on: Pasteurella multocida 60A; test: MIC, broth-dilution microtiter test (Table X); type: cell-based; conditions: Avian isolate, read-out: MIC
Source text: as §1

Mycoplasma synoviae 40A = test: MIC, broth-dilution microtiter test (Table X); type: cell-based; conditions: Mycoplasmopsis synoviae, read-out: MIC
Source text: as §1

Streptococcus sp. 19F = test: MIC, broth-dilution microtiter test (Table X); type: cell-based; conditions: read-out: MIC
Source text: as §1

Mycoplasma hyorhinis 29E = test: MIC, broth-dilution microtiter test (Table X); type: cell-based; conditions: read-out: MIC
Source text: as §1

[13] = tested on: Mycoplasma hyopneumoniae S5972; test: MIC, broth-dilution microtiter test (Table X); type: cell-based; conditions: Mesomycoplasma hyopneumoniae, read-out: MIC
Source text: as §1

[14] = tested on: Mycoplasma gallisepticum 29C; test: MIC, broth-dilution microtiter test (Table X); type: cell-based; conditions: Mycoplasmoides gallisepticum, read-out: MIC
Source text: as §1

[15] = tested on: Streptococcus Group D X66; test: MIC, standard agar-dilution assay (Table IX); type: cell-based; conditions: read-out: MIC
[16] = tested on: Streptococcus pneumoniae Park I; test: MIC, standard agar-dilution assay (Table IX); type: cell-based; conditions: Streptococcus pneumoniae Park I; agar-dilution; read-out: MIC
[17] = tested on: Streptococcus pyogenes C203; test: MIC, standard agar-dilution assay (Table IX); type: cell-based; conditions: read-out: MIC
Pasteurella multocida [18] = test: Pasteurella infection in one-day-old chicks, medicated drinking water (Table XIII); type: in vivo; conditions: Administered in the available drinking water at 2 g/gal
Procedure, shortened: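 Oral dosing was by medicated drinking water (2 g/gal), offered from 4–20 h pre-infection and through a 3-day observation period. The chicks, one day old, were infected s.c. with 0.1 ml of a 10^-4-diluted, 20-h tryptose broth culture of avian Pasteurella multocida.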

Pasteurella multocida [19] = test: Pasteurella infection in one-day-old chicks, subcutaneous administration (Table XII); type: in vivo; conditions: Administered subcutaneously, 30 mg/kg × 2, 1 and 4 hours post-challenge
Procedure, shortened: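 Treatment was 30 mg/kg s.c., given twice (1 and 4 h after infection). The infection itself was induced in day-old chicks by s.c. injection of 0.1 ml of avian Pasteurella multocida culture (20-h tryptose broth, diluted 10^-4).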

[20] = tested on: Streptococcus Group D 2041; test: MIC, standard agar-dilution assay (Table IX); type: cell-based; conditions: GROUPD2041, read-out: MIC
[21] = Blood and tissue levels after a single injection; type: in vivo
Source text: A special advantage of this invention is that certain of the compounds are effective when administered as a single injection.

[22] = tested on: Staphylococcus aureus 19C; test: MIC, broth-dilution microtiter test (Table X); type: cell-based
Source text: as §1

[23] = Titratable groups (first value)

SMILES | MIC [1] | MIC [2] | MIC (Escherichia coli N10) | ED50 ([3]; C203, Oral) | ED50 ([3]; C203, sc, Subcutaneous) | MIC (Escherichia coli EC14) | MIC [4] | MIC (Klebsiella X26) | MIC [6] | MIC [7] | MIC (Escherichia coli TEM) | MIC [8] | MIC [9] | MIC (Staphyloccus aureus X1.1) | MIC [10] | MIC [11] | MIC [12] | MIC (Mycoplasma synoviae 40A) | MIC (Streptococcus sp. 19F) | MIC (Mycoplasma hyorhinis 29E) | also measured
CCC1OC(=O)CC(O)C(C)C(OC2OC(C)C(O)C(N(C)C)C2O)C(CCN2CCCCCCC2)CC(C)C(=O)C=CC(C)=CC1COC1OC(C)C(O)C(OC)C1OC (stereo not drawn) [Compound D6] | 5 µg/mL (≈ 5.75 µM) | 16 µg/mL (≈ 18.4 µM) | 64 µg/mL (≈ 73.6 µM) | 14 mg/kg | 0.7 mg/kg | 64 µg/mL (≈ 73.6 µM) | 0.5 µg/mL (≈ 0.575 µM) | 16 µg/mL (≈ 18.4 µM) | 0.5 µg/mL (≈ 0.575 µM) | 16 µg/mL (≈ 18.4 µM) | 16 µg/mL (≈ 18.4 µM) | 0.25 µg/mL (≈ 0.288 µM) | 0.5 µg/mL (≈ 0.575 µM) | 0.5 µg/mL (≈ 0.575 µM) | 3.12 µg/mL (≈ 3.59 µM) | 1.56 µg/mL (≈ 1.79 µM) | 6.25 µg/mL (≈ 7.19 µM) | 0.78 µg/mL (≈ 0.897 µM) | 0.78 µg/mL (≈ 0.897 µM) | 50 µg/mL (≈ 57.5 µM) | MIC (Group D strain 9960): 8 µg/mL (≈ 9.2 µM); Titratable groups [5]: 7.3; Titratable groups (first value) [5]: 5.4; pKa ([5]; Titratable groups): 9.4; pKa [5, 23]: 7.9; pKa ([5]; Titratable groups (third printed value)): 9.2; MIC (Staphylococcus aureus): 0.78 µg/mL (≈ 0.897 µM); MIC [13]: 1.56 µg/mL (≈ 1.79 µM); MIC [14]: 1.56 µg/mL (≈ 1.79 µM); MIC [15]: 4 µg/mL (≈ 4.6 µM); MIC [16]: 0.5 µg/mL (≈ 0.575 µM); MIC [17]: 0.5 µg/mL (≈ 0.575 µM)
CCC1OC(=O)CC(O)C(C)C(OC2OC(C)C(O)C(N(C)C)C2O)C(CCN2C[C@H](C)C[C@H](C)C2)CC(C)C(=O)C=CC(C)=CC1COC1OC(C)C(O)C(OC)C1OC (stereo partly drawn) [Compound D34, 20-DH-DO-20-(cis-3,5-dimethylpiperidine-1-yl)desmycosin] | 0.5 µg/mL (≈ 0.575 µM) | 16 µg/mL (≈ 18.4 µM) | 128 µg/mL (≈ 147 µM) | 7.98 mg/kg | < 0.625 mg/kg | 128 µg/mL (≈ 147 µM) | 0.5 µg/mL (≈ 0.575 µM) | 64 µg/mL (≈ 73.6 µM) | 1 µg/mL (≈ 1.15 µM) | 4 µg/mL (≈ 4.6 µM) | 32 µg/mL (≈ 36.8 µM) | 0.25 µg/mL (≈ 0.288 µM) | 1 µg/mL (≈ 1.15 µM) | 1 µg/mL (≈ 1.15 µM) | 12.5 µg/mL (≈ 14.4 µM) | 6.25 µg/mL (≈ 7.19 µM) | 12.5 µg/mL (≈ 14.4 µM) | 0.78 µg/mL (≈ 0.897 µM) | 3.12 µg/mL (≈ 3.59 µM) | 12.5 µg/mL (≈ 14.4 µM) | Number of Deaths/Number Treated (Pasteurella multocida [18]): 3/10 and 0/10 and 1/10 and 6/10; Number of Deaths/Number Treated (Pasteurella multocida [19]): 3/10; MIC [20]: 8 µg/mL (≈ 9.2 µM); measurable blood and tissue levels of the drug [21]: prolonged measurable blood and tissue levels of the drug for as long as seven days; MIC [22]: 3.12 µg/mL (≈ 3.59 µM); MIC [13]: 0.78 µg/mL (≈ 0.897 µM); MIC [14]: 0.195 µg/mL (≈ 0.224 µM); MIC [15]: 4 µg/mL (≈ 4.6 µM); MIC [16]: 2 µg/mL (≈ 2.3 µM); MIC [17]: 0.5 µg/mL (≈ 0.575 µM)
CCC1OC(=O)CC(O)C(C)C(OC2OC(C)C(O)C(N(C)C)C2O)C(CCN2CCCCCCC2)CC(C)C(=O)C=CC(C)=CC1COC1OC(C)C(O)C(O)C1OC (stereo not drawn) [Compound L5, 20-DH-DO-20-(octahydroazocin-1-yl)lactenocin] | 1 µg/mL (≈ 1.17 µM) | 32 µg/mL (≈ 37.4 µM) | > 128 µg/mL | 100 mg/kg | 1.8 mg/kg | > 128 µg/mL | 1 µg/mL (≈ 1.17 µM) | 16 µg/mL (≈ 18.7 µM) | 2 µg/mL (≈ 2.34 µM) | 6 µg/mL (≈ 7.02 µM) | 16 µg/mL (≈ 18.7 µM) | 0.5 µg/mL (≈ 0.585 µM) | 1 µg/mL (≈ 1.17 µM) | 1 µg/mL (≈ 1.17 µM) | 6.25 µg/mL (≈ 7.31 µM) | 12.5 µg/mL (≈ 14.6 µM) | 12.5 µg/mL (≈ 14.6 µM) | 3.12 µg/mL (≈ 3.65 µM) | 0.78 µg/mL (≈ 0.912 µM) | 50 µg/mL (≈ 58.5 µM) | MIC (Group D strain 9960): 16 µg/mL (≈ 18.7 µM); pKa ([5]; Titratable groups): 9.3; pKa [5, 23]: 7.8; Number of Deaths/Number Treated (Pasteurella multocida [19]): 0/10; MIC (Staphylococcus aureus): 1.56 µg/mL (≈ 1.82 µM); MIC [14]: 6.25 µg/mL (≈ 7.31 µM); MIC [15]: 16 µg/mL (≈ 18.7 µM); MIC [16]: 0.5 µg/mL (≈ 0.585 µM); MIC [17]: 0.5 µg/mL (≈ 0.585 µM)
CCC1OC(=O)CC(O)C(C)C(OC2OC(C)C(O)C(N(C)C)C2O)C(CCN2CCC(c3ccccc3)CC2)CC(C)C(=O)C=CC(C)=CC1COC1OC(C)C(O)C(OC)C1OC (stereo not drawn) [Compound D4, 20-DH-DO-20-(4-Phenylpiperidin-1-yl)desmycosin] | 0.5 µg/mL (≈ 0.545 µM) | 8 µg/mL (≈ 8.72 µM) | 64 µg/mL (≈ 69.8 µM) | 19 mg/kg | 6 mg/kg | 64 µg/mL (≈ 69.8 µM) | 0.5 µg/mL (≈ 0.545 µM) | 32 µg/mL (≈ 34.9 µM) | 0.5 µg/mL (≈ 0.545 µM) | 8 µg/mL (≈ 8.72 µM) | 32 µg/mL (≈ 34.9 µM) | 0.25 µg/mL (≈ 0.273 µM) | 0.5 µg/mL (≈ 0.545 µM) | 0.5 µg/mL (≈ 0.545 µM) | 6.25 µg/mL (≈ 6.81 µM) | 6.25 µg/mL (≈ 6.81 µM) | 6.25 µg/mL (≈ 6.81 µM) | < 0.05 µg/mL | 0.09 µg/mL (≈ 0.0981 µM) | 50 µg/mL (≈ 54.5 µM) | Number of Deaths/Number Treated (Pasteurella multocida [18]): 6/10; MIC (Group D strain 9960): 2 µg/mL (≈ 2.18 µM); Number of Deaths/Number Treated (Pasteurella multocida [19]): 9/10; MIC (Staphylococcus aureus): 0.39 µg/mL (≈ 0.425 µM); MIC [13]: 0.78 µg/mL (≈ 0.85 µM); MIC [14]: 0.39 µg/mL (≈ 0.425 µM); MIC [15]: 1 µg/mL (≈ 1.09 µM); MIC [16]: 0.25 µg/mL (≈ 0.273 µM); MIC [17]: 0.25 µg/mL (≈ 0.273 µM)
